We go through eight compounds from ChEMBL document CHEMBL3997840, “Kinase-independent phosphoramidate S1P1 receptor agonist benzyl ether derivatives” (Bioorg Med Chem Lett, 2017).

The subject of data set [1] is Serum. Nature of the data set: Drug metabolism in human serum assessed as monophosphate formation by measuring parent compound half life at 3 mg by 31P NMR method. It is filed as ADME, cell-free.
Data set [2] in a line: Drug metabolism in mouse J1 cell derived neurons assessed as monophosphate formation at 3 mg after 4 days by mass spectroscopic method. Conditions: j1 cell-derived neuron, 96 h. It is filed as ADME, cell-based.
Data set [3] can be described thus: Chemical stability in aqueous buffer at pH 1.5 at 3 mg measured every 12 mins over 13 hrs by 31P NMR method. To be noted: pH 1.5, 13 h. It counts as physicochemical.
Data set [4] in a line: Chemical stability in aqueous buffer at pH 8 at 3 mg measured every 12 mins over 13 hrs by 31P NMR method. It is filed as physicochemical. Conditions: pH 8, 13 h.
The nature of data set [5]: Drug metabolism assessed as carboxypeptidase Y (unknown origin)-mediated monophosphate formation at 3 mg measured every day over 2 weeks by mass spectroscopic method. It is filed as ADME. To be noted: human, 336 h.
The test system of data set [6] is Serum. Nature of the data set: Drug metabolism in human serum assessed as monophosphate formation at 3 mg after 12 hrs by mass spectroscopic method. It is filed as ADME, cell-free.
Data set [7] is filed under the species Homo sapiens. Nature of the data set: Selectivity ratio of EC50 for human S1P3 receptor to EC50 for human S1P1 receptor.
Data set [8] addresses Sphingosine 1-phosphate receptor 3 (Homo sapiens, UniProt Q99500). The data set can be described thus: Agonist activity at human S1P3 receptor expressed in CHOK1 cell membranes by [35S]-GTPgammaS binding assay. Background: GTPγS is a poorly hydrolysed GTP analogue; its binding reports G protein activation.

pEC50: −log10 of the molar value.

Chain of Sphingosine 1-phosphate receptor 3 (Q99500 whole entry): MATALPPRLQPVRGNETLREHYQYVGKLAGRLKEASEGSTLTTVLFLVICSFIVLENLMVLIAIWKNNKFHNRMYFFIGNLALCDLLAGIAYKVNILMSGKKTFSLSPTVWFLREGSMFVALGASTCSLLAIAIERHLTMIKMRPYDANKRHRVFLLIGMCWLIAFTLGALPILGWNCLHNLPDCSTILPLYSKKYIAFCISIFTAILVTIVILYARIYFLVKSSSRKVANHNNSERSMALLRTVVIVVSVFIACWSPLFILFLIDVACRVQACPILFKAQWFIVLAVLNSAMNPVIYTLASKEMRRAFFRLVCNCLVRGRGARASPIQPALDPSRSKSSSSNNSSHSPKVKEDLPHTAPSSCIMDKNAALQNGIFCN

As to `Cc1ccc(CCCC(=O)c2ccc(COC[C@@](C)(N)COP(=O)(N[C@@H](C)C(=O)OCc3ccccc3)Oc3ccccc3)cc2)cc1` (some centres undefined), the t1/2 in data set [1] was found to be 14 h. Consider `COC(=O)[C@H](C)NP(=O)(OC[C@](C)(N)COCc1ccc(C(=O)CCCc2ccc(C)cc2)cc1)Oc1ccccc1` (some centres undefined), for which the Drug metabolism result in data set [2], in data set [5] and in data set [6] was “Metabolite_Detected” throughout. The Stability result in data set [3] and in data set [4] was “Stable” each time. In addition, the t1/2 in data set [1] was found to be 14 h.

For `Cc1ccc(CCCC(=O)c2ccc(COC[C@@](C)(N)COP(=O)(N[C@@H](C)C(=O)OC(C)C)Oc3ccccc3)cc2)cc1` (some centres undefined), the t1/2 in data set [1] is 14 h. Still for that read-out and setting: the result for `COC(=O)[C@H](C)NP(=O)(OC[C@](C)(N)COCc1cc(C)c(C(=O)CCCc2ccc(C)cc2)cc1C)Oc1ccccc1` (some centres undefined) reads 14 h; that for `Cc1ccc(CCCC(=O)c2cc(C)c(COC[C@@](C)(N)COP(=O)(N[C@@H](C)C(=O)OCc3ccccc3)Oc3ccccc3)cc2C)cc1` (some centres undefined), 14 h; that for `Cc1ccc(CCCC(=O)c2cc(C)c(COC[C@@](C)(N)COP(=O)(N[C@@H](C)C(=O)OC(C)C)Oc3ccccc3)cc2C)cc1` (some centres undefined), 14 h. With `Cc1ccc(CCCC(=O)c2ccc(COC[C@@](C)(N)COP(=O)(O)O)cc2)cc1`, the Ratio EC50 in data set [7] worked out at 29. In the case of `Cc1ccc(CCCC(=O)c2cc(C)c(COC[C@@](C)(N)COP(=O)(O)O)cc2C)cc1`, the Ratio EC50 in data set [7] was > 3080. For the same compound, in data set [8], the pEC50 was < 4.70.

The pEC50 is the EC50 on a negative log10 scale, so that one unit is a factor of ten. Low readings indicate a high EC50, high ones a low EC50.
